{"source": "patent US20050169978A1", "about": "“Wet-micro grinding” (priority 2004, published 2005)", "assay": "AmB content by high performance liquid chromatography during grinding", "type": "physicochemical", "conditions": "ball mill, 210 min overall grinding, HPLC", "protocol": "Samples were taken at a grinding time of 90 minutes, 150 minutes, and 210 minutes, and were designated as LDAB90, LDAB150, and LDAB210, respectively. All samples were stored at 2-8° C. before analyzed. The particle size ranges of the samples were measured using N4 Plus Particle Size Analyzer and the AmB content was measured using high performance liquid chromatography.", "data": [{"smiles": "C[C@@H]1[C@H](O)[C@@H](C)/C=C/C=C/C=C/C=C/C=C/C=C/C=C/[C@H](O[C@@H]2O[C@H](C)[C@@H](O)[C@H](N)[C@@H]2O)C[C@@H]2O[C@](O)(C[C@@H](O)C[C@@H](O)[C@H](O)CC[C@@H](O)C[C@@H](O)CC(=O)O[C@H]1C)C[C@H](O)[C@H]2C(=O)O", "note": "[AmB, amphotericin B]", "values": [{"measurement": "stability of AmB (AmB content) during grinding", "result": "remained stable during the whole period of the grinding process"}]}]}
